{"source": "patent US12048682B2", "about": "“Combination of micheliolide derivatives or nanoparticles with ionizing radiation and checkpoint inhibitors for cancer therapy” (The University of Chicago, priority 2018, dated 2024)", "key": {"GL261 cells": {"tested_on": "GL261 cells", "assay": "In vitro cytotoxicity against glioma cells GL261 (MTS assay), with or without X-ray irradiation", "format": "cell-based, mouse", "experimental": "GL261 cells were seeded onto 96-well plates at a density of 2000 cells/well and treated with various concentrations of the dimethylamino Michael adduct of MCL (dimethylamino micheliolide, […]) for 24 hours to allow for sufficient cellular uptake and conversion to MCL before irradiation. The cells were irradiated with varying amounts of X-ray irradiation and then incubated for an additional 24 hours. The culture medium was exchanged with fresh medium and further incubated for an additional 48 hours. The cell viability was then detected by (3-(4,5-dimethylthiazol-2-yl)-5-(3-carboxymethoxyphenyl)-2-(4-sulfophenyl)-2H-tetrazolium) (MTS) assay (Promega, Madison, Wisconsin, United States of America)."}, "glioma GL261 tumor model [1]": {"tested_on": "glioma GL261 tumor model", "assay": "In vivo antitumor activity, glioma GL261 tumor model on immunocompromised Rag2-/- C57BL/6 mice", "experimental": "The combination of […] and irradiation was evaluated on the glioma GL261 tumor model on immunocompromised Rag2^-/- C57BL/6 mice. The mice were orally dosed with 50 mg/kg […] or PBS daily and irradiated with 4 Gy irradiation approximately 4 hrs after dosing, as applicable, for up to 7 days, starting when the tumors reached about […]. A Precision X-ray X-RAD 225 Image Guided Biologic Irradiator (Precision X-Ray Irradiation, North Branford, Connecticut, United States of America) was used for all animal studies. The instrument was set at 225 peak kilovoltage (kVp) and 13 milliampere (mA), with a 0.3 mm flat-board copper (Cu) filter installed before a 15-mm collimator. The irradiation was given in two successive fractions with incident angles of 0° and 180° for each mouse."}, "glioma GL261 tumor model [2]": {"tested_on": "glioma GL261 tumor model", "assay": "In vivo antitumor activity, glioma GL261 tumor model on wildtype C57BL/6 mice (irradiation and PD-L1 antibody combination)", "experimental": "The combination of DMAMCL, irradiation, and PD-L1 antibody was evaluated on the glioma GL261 tumor model on wildtype C57BL/6 mice. The treatment began 14 days after the inoculation of 2×10^6 GL261 cells. The mice were orally dosed with 50 mg/kg DMAMCL or PBS daily and irradiated with 2 Gy irradiation approximately 4 hrs after dosing, as applicable, for up to 12 days, starting when the tumors reached ˜150 mm^3-200 mm^3. One group of mice received two doses of 75 μg PD-L1 antibody on days 0 and 4. […] By the cessation of treatment, 3/5 tumors treated with this combination were barely palpable."}}, "data": [{"smiles": "CC1=C2CC[C@@](C)(O)[C@@H]2[C@H]2OC(=O)[C@@H](CN(C)C)[C@@H]2CC1", "note": "[DMAMCL, dimethylamino micheliolide]", "values": [{"measurement": "cytotoxicity (cell viability)", "setting": "GL261 cells; 1 μM DMAMCL and X-ray irradiation of 8 Gy", "result": "significant cytotoxicity"}, {"measurement": "cytotoxicity (cell viability)", "setting": "GL261 cells; 10 μM DMAMCL and X-ray irradiation of 8 Gy", "result": "significant cytotoxicity"}, {"measurement": "toxicity (cell viability)", "setting": "GL261 cells; DMAMCL monotherapy, doses up to 10 μM, no irradiation", "result": "little to no toxicity"}, {"measurement": "tumor growth", "setting": "glioma GL261 tumor model [1]; DMAMCL 50 mg/kg oral daily plus 4 Gy irradiation about 4 hrs after dosing, up to 7 days", "result": "successfully controlled tumor growth"}, {"measurement": "tumor growth", "setting": "glioma GL261 tumor model [1]; DMAMCL alone, 50 mg/kg oral daily up to 7 days", "result": "initially suppressed tumor growth"}, {"measurement": "tumor size compared to irradiation alone", "setting": "glioma GL261 tumor model [1]; DMAMCL alone, 50 mg/kg oral daily up to 7 days, final tumor size", "result": "not significantly different in size"}, {"measurement": "tumor growth", "setting": "glioma GL261 tumor model [2]; DMAMCL 50 mg/kg oral daily plus 2 Gy irradiation plus 75 μg PD-L1 antibody on days 0 and 4, wildtype C57BL/6 mice", "result": "controlled and regressed tumor growth immediately after treatment"}, {"measurement": "tumor growth", "setting": "glioma GL261 tumor model [2]; DMAMCL 50 mg/kg oral daily plus 2 Gy irradiation, up to 12 days, wildtype C57BL/6 mice", "result": "suppressed tumor growth and ultimately led to tumor regression"}, {"measurement": "tumor growth", "setting": "glioma GL261 tumor model [2]; DMAMCL alone, 50 mg/kg oral daily up to 12 days, wildtype C57BL/6 mice", "result": "no effect on tumor growth"}, {"measurement": "tumors barely palpable by the cessation of treatment", "setting": "glioma GL261 tumor model [2]; DMAMCL plus 2 Gy irradiation plus PD-L1 antibody, wildtype C57BL/6 mice", "result": "3/5"}]}]}
